Twelve molecules from patent US12110281B2, “Catechol derivatives or salt thereof, processes for preparing the same, and pharmaceutical compositions comprising the same” (HEXAPHARMATEC CO., LTD., priority 2018, dated 2024) can be followed below.

Where a name gives a salt, the structure may show the parent alone.

The test system of test [1] is Hela cells. The test can be described thus: Autophagy-inducing activities in Hela cells (Autophagy Detection Kit). The format is cell-based. How it is done:
The autophagy-inducing activities of the compounds of the present invention were measured in Hela cells (Korean Cell Line Bank), using the Autophagy Detection Kit (ab139484, Abcam), according to the manufacturer's instructions. Specifically, 100 μL of EBSS (Earle's Balanced Salt Solution, WELGENE (LB 002-03)) containing 10% fetal bovine serum (FBS) was added to each well of a 96-well plate. Hela cells (1×10^4 cells) were added to each well and then incubated overnight at 37° C. in a CO2 incubator so as to stabilize the cells. The medium of each well containing the stabilized cells was replaced with a medium obtained by adding 10 nM or 100 nM of the compounds prepared in Examples (test compounds) to a EBSS containing 10% FBS. As a positive control, rapamycin was dissolved in dimethyl sulfoxide and then treated at a concentration of 500 nM per well. After the treatments, the cells were incubated at 37° C. in a CO2 incubator for 4 hours or 24 hours and then washed twice with the 1× assay buffer (prepared by adding 9 mL of distilled water to the 10× assay buffer). EBSS containing 5% fetal bovine serum, 1 μL/ml of Green detection reagent and 1 μL/ml of Nuclear stain was added thereto in the amount of 100 μL per well. The cells were incubated for 1 hour at 37° C. in a CO2 incubator and then washed twice with the 1× assay buffer. The absorbance values were measured at 488 nm, using a microplate reader (Cytation 3). The tests were repeated four times.
The absorbance values, which were obtained by treating Hela cells with the test compounds (100 nM) and the positive control (rapamycin, 500 nM) and then incubating for 4 hours as described in above, are shown in Table 1 below. And also, the absorbance values, which were obtained by treating Hela cells with the test compounds (10 nM or 100 nM) and the positive control (rapamycin, 500 nM) and then incubating for 24 hours as described in above, are shown in Table 2 below.

The test system of test [2] is dimethylnitrosamine (DMN)-induced liver injury male SD rats. The test can be described thus: Liver function-improving activities by oral administration in the liver injury model (1), 3 weeks. The format is in vivo, rat. Particulars: serum, 25 mg/kg oral once a day. From the text:
The compounds according to the present invention were orally administered to dimethylnitrosamine (DMN)-induced liver injury male SD rats for 3 weeks, so as to evaluate liver function-improving activities. Specifically, 7-week-old male SD rats (Orient Bio, Korea) were accommodated to the laboratory environment at room temperature for 7 days. General symptoms were observed and then only healthy animals were used for the experiment. The rats were divided into 9 groups (n=5 for each group), the normal control group, the group to which only DMN is administered, and the groups to which both the compound of the present invention (the compounds of Example 2, 5, 6, 9, 10, 20 or 21) and DMN are administered. DMN was dissolved in purified water and then administered intraperitoneally at the dose of 10 mg/kg for 3 consecutive weeks (3 times per week, for 4 weeks). Blood samples were collected on Day 3 after the completion of the first-week liver injury inducement and then the ALT (Alanine Transaminase) values and the AST (Aspartate Transaminase) values were measured so as to confirm the liver injury thereof. The compounds of the present invention were administered for 3 weeks, i.e., from Day 4 after the completion of the first-week liver injury inducement to the DMN-administering period. The seven compounds of the present invention were dissolved in purified water or corn oil and then orally administered, using an oral sonde, at the dose of 25 mg/kg once a day for 3 weeks. Blood samples were collected on Day 0 (3 days after the completion of the first-week liver injury inducement) and Day 7, 14 and 21 after the administration of the test compounds. The collected blood was injected into a vacutainer tube containing a clot activator and then allowed to stand at room temperature for about 20 minutes so as to coagulate each blood sample. After centrifugation for 10 minutes, the resulting serums were subjected to blood-biochemical tests.

The mark [3] stands for this setting: test compound 10 nM, incubation for 24 hours.
The mark [4] stands for this setting: test compound 100 nM, incubation for 4 hours.
[5] abbreviates: test compound 100 nM, incubation for 24 hours.
Where [6] appears, read: 0 week (Day 0, before administration of test compound).

As to `COc1cc(-c2ccc(C(=O)N3CCN(C)CC3)s2)ccc1O` [Example 1, hydrochloride], the entries for the “Absorbance (at 488 nm)” value in test [1] (setting [3]), in test [1] (setting [4]) and in test [1] (setting [5]) were 1617.3, 1321.2 and 1660.3, respectively.

Take `CCN(CC)CCOc1ccc(-c2ccc(C(=O)N3CCN(C)CC3)s2)cc1OC.Cl.Cl` [Example 2, N-(4-methylpiperazino)-5-(4-(2-diethylamino)ethoxy-3-methoxyphenyl)thiophene-2-carboxamide hydrochloride]: the “ALT values (average value)” value in test [2] (setting [6]) came to 67.24 U/L; in test [2] (1 week), 101.70 U/L; in test [2] (2 weeks), 113.22 U/L; in test [2] (3 weeks) it was 126.10 U/L. Further, the “AST values (average value)” value was determined as 143.32 U/L in test [2] (setting [6]), 210.86 U/L in test [2] (1 week), 223.88 U/L in test [2] (2 weeks) and 250.76 U/L in test [2] (3 weeks). For the same molecule, the results for the “Absorbance (at 488 nm)” value in test [1] (setting [3]), in test [1] (setting [4]) and in test [1] (setting [5]) were 1829.3, 1460.5 and 1866.3, respectively.

With `COc1cc(-c2ccc(C(=S)N3CCN(C)CC3)s2)ccc1O` [Example 3, N-(4-methylpiperazino)-5-(4-hydroxy-3-methoxyphenyl)thiophene-2-thiocarboxamide hydrochloride], the “Absorbance (at 488 nm)” value in test [1] (setting [3]) came to 1576.3; in test [1] (setting [4]) it was 1193.8; in test [1] (setting [5]), 1754.3.

Turning to `CCN(CC)CCOc1ccc(-c2ccc(C(=S)N3CCN(C)CC3)s2)cc1OC.Cl.Cl` [Example 4, N-(4-methylpiperazino)-5-(4-(2-diethylamino)ethoxy-3-methoxyphenyl)thiophene-2-thiocarboxamide hydrochloride], the “Absorbance (at 488 nm)” value in test [1] (setting [3]) is given as 1691.3; in test [1] (setting [4]), 1580.6; in test [1] (setting [5]) it was 1618.3.

Consider `COc1cc(-c2ccc(C(=O)NCCN(C(C)C)C(C)C)s2)ccc1O.Cl` [Example 5, N-(2-(diisopropylamino)ethyl)-5-(4-hydroxy-3-methoxyphenyl)thiophene-2-carboxamide hydrochloride], for which the “ALT values (average value)” value in test [2] (setting [6]) amounted to 68.90 U/L; in test [2] (1 week), 96.60 U/L; in test [2] (2 weeks), 108.80 U/L; in test [2] (3 weeks), 111.00 U/L. The “AST values (average value)” value in test [2] (setting [6]) was found to be 137.66 U/L; in test [2] (1 week) it was 187.26 U/L; in test [2] (2 weeks), 219.66 U/L; in test [2] (3 weeks) it was 234.22 U/L. The “Absorbance (at 488 nm)” value in test [1] (setting [3]) was determined as 1557.3; in test [1] (setting [4]), 1348.0; in test [1] (setting [5]), 1618.3.

Take `CCN(CC)CCOc1ccc(-c2ccc(C(=O)NCCN(C(C)C)C(C)C)s2)cc1OC.Cl.Cl` [Example 6, N-(2-(diisopropylamino)ethyl)-5-(4-(2-diethylamino)ethoxy-3-methoxyphenyl)thiophene-2-carboxamide hydrochloride]: the “ALT values (average value)” value in test [2] (setting [6]) worked out at 68.02 U/L; in test [2] (1 week) it was 80.46 U/L; in test [2] (2 weeks) it was 98.94 U/L; in test [2] (3 weeks) it was 109.80 U/L. The “AST values (average value)” value in test [2] (setting [6]) is on record as 141.78 U/L; in test [2] (1 week) it was 220.86 U/L; in test [2] (2 weeks) it was 215.42 U/L; in test [2] (3 weeks), 249.56 U/L. The “Absorbance (at 488 nm)” value in test [1] (setting [3]) is listed as 1784.6; in test [1] (setting [4]), 1670.5; in test [1] (setting [5]), 1893.7.

Take `COc1cc(-c2ccc(C(=S)NCCN(C(C)C)C(C)C)s2)ccc1O.Cl` [Example 7, N-(2-(diisopropylamino)ethyl)-5-(4-hydroxy-3-methoxyphenyl)thiophene-2-thiocarboxamide hydrochloride]: the “Absorbance (at 488 nm)” value stood at 1598.5 in test [1] (setting [3]), 1325.5 in test [1] (setting [4]) and 1605.5 in test [1] (setting [5]).

For the molecule `CCN(CC)CCOc1ccc(-c2ccc(C(=S)NCCN(C(C)C)C(C)C)s2)cc1OC.Cl.Cl` [Example 8, N-(2-(diisopropylamino)ethyl)-5-(4-(2-diethylamino)ethoxy-3-methoxyphenyl)thiophene-2-thiocarboxamide hydrochloride], the “Absorbance (at 488 nm)” value in test [1] (setting [3]) worked out at 1586.3; in test [1] (setting [4]) it was 1315.2; in test [1] (setting [5]) it was 1612.3.

For `CCN(CC)CCOc1ccc(-c2ccc(C(=O)NC(C)C)s2)cc1OC.Cl` [Example 9, N-isopropyl-5-(4-(2-diethylamino)ethoxy-3-methoxyphenyl)thiophene-2-carboxamide hydrochloride], the “ALT values (average value)” value in test [2] (setting [6]) is reported as 67.64 U/L; in test [2] (1 week), 103.78 U/L; in test [2] (2 weeks), 111.80 U/L; in test [2] (3 weeks) it was 117.92 U/L. Further, the “AST values (average value)” value in test [2] (setting [6]) was determined as 140.64 U/L; in test [2] (1 week) it was 220.58 U/L; in test [2] (2 weeks), 241.06 U/L; in test [2] (3 weeks), 222.50 U/L. In addition, the results for the “Absorbance (at 488 nm)” value in test [1] (setting [3]), in test [1] (setting [4]) and in test [1] (setting [5]) were 1594.0, 1320.2 and 1951.7, respectively.

Take `COc1cc(-c2ccc(C(=S)NC(C)C)s2)ccc1O` [Example 11, N-isopropyl-5-(4-hydroxy-3-methoxyphenyl)thiophene-2-thiocarboxamide]: the “Absorbance (at 488 nm)” value was found to be 1459.7 in test [1] (setting [3]), 1268.4 in test [1] (setting [4]) and 1731.0 in test [1] (setting [5]).

Regarding `COc1cc(-c2ccc(C(=O)NCC3(N(C)C)CCOCC3)s2)ccc1O.Cl` [Example 20, N-((4-(dimethylamino)tetrahydro-2H-pyran-4-yl)methyl)-5-(4-hydroxy-3-methoxyphenyl)thiophene-2-carboxamide hydrochloride], the “ALT values (average value)” value in test [2] (setting [6]) was 69.80 U/L; in test [2] (1 week), 87.26 U/L; in test [2] (2 weeks), 104.34 U/L; in test [2] (3 weeks), 116.14 U/L. Further, the “AST values (average value)” value in test [2] (setting [6]) is 136.28 U/L; in test [2] (1 week) it was 194.88 U/L; in test [2] (2 weeks), 209.56 U/L; in test [2] (3 weeks), 229.74 U/L.

On to `CO[C@H]1C[C@@H]2CC[C@@H](C)[C@@](O)(O2)C(=O)C(=O)N2CCCC[C@H]2C(=O)O[C@H]([C@H](C)C[C@@H]2CC[C@@H](O)[C@H](OC)C2)CC(=O)[C@H](C)/C=C(\C)[C@@H](O)[C@@H](OC)C(=O)[C@H](C)C[C@H](C)/C=C/C=C/C=C/1C` [Rapamycin, rapamycin, reference compound], for which the “Absorbance (at 488 nm)” value in test [1] (positive control 500 nM, incubation for 4 hours) is given as 1306.2; in test [1] (positive control 500 nM, incubation for 24 hours) it was 1594.2.
